We go through three compounds from paper PMC9897788, “Design, synthesis and cytotoxic evaluation of novel bis-thiazole derivatives as preferential Pim1 kinase inhibitors with in vivo and in silico study” (Journal of Enzyme Inhibition and Medicinal Chemistry, 2023).

In series [1] the test system is Breast MCF10A normal cell line. The series is described as follows: Normal cell line cytotoxicity using MCF10a (MTT). The series is classed as cell-based, human. The following applies: 48 h; for IC50: Homo sapiens, MCF-10A; for Selectivity Index: MCF10A normal versus T47D cancer cells. How it is done:
In vitro toxicology assay kit (MTT based) stock no. TOX-1 7H258 was purchased from SIGMA (St. Louis, MO). About 3 ml of the medium with the normal cell lines in log phase were added in multiwall plate without phenol red and serum. A volume of reconstituted MTT (#M-5655) equivalent to 10% of the culture medium volume was added then incubated for 2 h. The resulted fomazan crystals were dissolved with occasional shaking by equivalent volume of MTT solubilising solution (#M-8910). The final solution absorbance was measured spectrophotometry at wavelength 570 nm. Blank experiment was performed using medium only without cells.

A short description of series [2]: Solubility in DMSO (NMR observation). As to conditions: noticed from weak NMR signals. The series is classed as physicochemical.

As for `CC(=O)c1sc(Nc2cccc(Nc3nc(C)c(C(C)=O)s3)c2)nc1C` [3b, 1,1’-(2,2’-(1,3-Phenylenebis(azanediyl))bis(4-methylthiazole-5,2-diyl))diethanone], in series [1], 105 µM corresponded to half-maximal inhibition (IC50) and the “Selectivity Index” value came to 18.25. With `Cc1nc(Nc2cccc(Nc3nc(C)c(N=Nc4ccccc4)s3)c2)sc1N=Nc1ccccc1` [5a, N^1,N^3-bis(4-methyl-5-(phenyldiazenyl)thiazol-2-yl)benzene-1,3-diamine], the “solubility in DMSO” value in series [2] was “poor solubility in DMSO”. For the compound `Fc1ccc(-c2cs/c(=N\c3ccccc3)n2-c2cccc(-n3c(-c4ccc(F)cc4)cs/c3=N\c3ccccc3)c2)cc1` [8b, N,N’-(3,3’-(1,3-phenylene)bis(4–(4-fluorophenyl)thiazole-3(3H)-yl-2(3H)-ylidene))dianiline], in series [1], half-maximal inhibition (IC50) required 53.3 µM and the “Selectivity Index” value came out at 5.44.

The IC50 is the concentration at which inhibition is half-maximal. Low values mean inhibition by little substance, high ones a need for much substance.
